Reference: US20260315521A1, “THERAPEUTIC FORMULATIONS FOR KIDNEY DISEASE COMPRISING REPAGERMANIUM OR PROPAGERMANIUM AND/OR AT1R BLOCKERS” (DIMERIX BIOSCIENCE PTY LTD, priority 2023, published 2026)
Where two headings read alike, the source gives them in different places.

Columns and labels:
AT1R [1] = target: T1, AT1R (Homo sapiens, UniProt P30556); assay: ARB potency or affinity at AT1R only (public sources: IUPHAR guide to pharmacology, Michel et al 2013, Choung et al 2018); type: binding; details: reference value
T1 sequence (P30556 1-359): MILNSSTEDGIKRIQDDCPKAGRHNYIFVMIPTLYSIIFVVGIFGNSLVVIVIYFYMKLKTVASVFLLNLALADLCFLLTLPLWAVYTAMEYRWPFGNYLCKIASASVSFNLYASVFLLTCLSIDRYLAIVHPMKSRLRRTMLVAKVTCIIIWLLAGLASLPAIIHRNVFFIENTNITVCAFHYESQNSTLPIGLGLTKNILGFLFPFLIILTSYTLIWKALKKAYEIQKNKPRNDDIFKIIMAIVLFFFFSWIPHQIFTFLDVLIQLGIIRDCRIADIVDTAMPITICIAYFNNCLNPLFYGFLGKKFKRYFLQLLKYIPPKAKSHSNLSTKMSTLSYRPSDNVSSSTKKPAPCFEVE

[2] = target: T2, co-stimulated CCR2-AT1R complexes (Homo sapiens, UniProt P30556); assay: Gαi protein dissociation assay (ligand-induced BRET) in HEK293FT cells co-stimulated with AngII and MCP-1/CCL2; type: cell-based
T2 construct: HA (haemagglutinin); expressed in transfected cells; host or cells: HEK293FT
Source text: To establish if ARBs maintain their potency for inhibition of Gαi protein activation the potencies of ARBs at AT1R only were correlated with the potency of ARBs at co-stimulated CCR2-AT1R complexes obtained from a Gαi protein dissociation assay (FIG. 2).
HEK293FT cells were transiently transfected by the plasmids coding for Gαi1-Nluc and CCR2-YFP haemagglutinin (HA)-tagged AT1R.
GraphPad Prism (v9.3.1) was then used plot ligand-induced BRET verses ARB concentration and potency (pIC50-values) were obtained by fitting a sigmoidal concentration response curve using non-linear regression function of GraphPad Prism (v9.3.1).
To calculate the potency of sparsentan HEK293FT cells were transiently transfected by the plasmids coding for Gαi1-Rluc8, CCR2-YFP and haemagglutinin (HA)-tagged AT1R. 48 h post-transfection, cells were incubated with substrate for 2 hours before cells were pre-incubated with sparsentan (1 μM) and filtered light emissions were sequentially measured for 1 s in each of the ‘donor wavelength window’ (410-490 nm) and ‘acceptor wavelength window’ (520-620 nm) for 30 minutes.
The potency of ARBs at co-stimulated CCR2-AT1R complexes was then compared to the potency of ARBs at AT1R using the linear regression function of GraphPad Prism (v9.3.1).

AT1R [3] = target: T1, AT1R; details: pIC50 or pKb from IUPHAR and/or Michel et al (2013), fimasartan from Choung et al 2018; cited from earlier work
[4] = test system: angiotensin II-induced cellular responses; details: compared with losartan; cited from earlier work
[5] = test system: chemotactic migration of monocytes by MCP-1; details: cited from earlier work
[6] = Population pharmacokinetic analysis of repagermanium (studies DMX-200-101, -202, -203; LC-MS/MS plasma levels); type: in vivo, human; details: for AUC(0-t) at 24 h: 240 mg/day, read-out: AUC24h, steady state, median; for AUC(0-t) at 24 h / AUC24h, steady state, range: 240 mg total daily dose; for CL/F: po, read-out: Clearance, median (converted)
Protocol: In all studies blood samples were analyzed using liquid chromatography tandem mass spectrometry (LC-MS/MS). This method involves the addition of deuterated-PPG (d2-PPG) as an internal standard (IS) and liquid-liquid extraction with chloroform for sample processing. The sample is analyzed on an LC-MS/MS system consisting of a Shimadzu LC20AD with Thermo Fisher Hypercarb column using gradient elution and an API 4000 mass spectrometer. The mass spectrometer is operated in the negative electrospray ionization (ESI) ion mode, and used to monitor the precursor to product ion transitions for PPG and d2-PPG, respectively. The lower limit of quantification (LLOQ) was 5 ng/ml.
The pharmacometric analysis was carried out in several steps driven by the suitability of the clinical data for development of the PK model. 1. An initial structural population PK model was developed using data from healthy volunteers (study 101). 2. This model was subsequently updated using the sparse data in patients from studies 202 and 203, and effects of covariates were explored. 3. Model qualification was performed. 4. Finally, the developed model was used for simulations of the influence of covariates on key PK parameters as well as on potential exposures.
The SAS software (version 9.4) was used for preparing the analysis dataset. The population PK analysis was performed using NONMEM (version 7.5.0) and the first order conditional estimation (FOCE) method with interaction. PsN (version≥5.0.0) was used to execute NONMEM runs as well as for running visual predictive checks (VPCs), sampling importance resampling (SIR) and automated step-wise covariate modelling (SCM). The R software (version≥4.0.2) was used for exploratory analysis, creation of goodness of fit (GOF) plots, and summary statistics. Campsis (version 1.1.0), an R-based software application provided by Calvagone, was used for simulations.
The NONMEM version 7.5.0 was used with the GNU Fortran (GCC) compiler version 9.3.0, running on a Ubuntu 20.04 LTS system with Linux kernel version 5.4.0-72-generic on Intel Xeon E5-2640 v3 @ 8 HT 2.60 GHz, using VMWare ESXi 7.0u1 platform with fault tolerance, hosting virtual management server with 8 vCPU; and calculation nodes with Intel Xeon E5-2680 v4 14HT 2.40 GHz. Fortran compiler optimisation options were:-static-w-O3-ffast-math. All software was used in a validated environment.
In the mixed effects modelling the population parameters are categorised as follows: Fixed effects parameters, θ (theta), are used for the structural population parameters (e.g. Ka, CL, V, F, etc.), as well as certain parameters relating the population parameters to the physiological or demographic variables (covariates) included in the analysis. Random effects parameters, n (eta), are used for describing inter-individual variability (IIV) in the fixed effects parameters, and can also be used to describe inter-occasion variability (IOV) if appropriately included in the model. Eta parameters are assumed to be normally distributed random variables with mean zero and variance-covariance matrix Q (omega). The square root of the diagonal elements of this matrix provides the IIV estimates. Off-diagonal elements (if not fixed to zero) are commonly translated to correlations. Random effects parameters, ¿ (epsilon), are used to describe the residual variability. Residual variability includes intra-individual error, analytical error, potential error due to model missspecification and any other error not considered by structural elements such as θ and η. Residual variability parameters are assumed to be normally distributed random variables with mean zero and standard deviation σ (sigma).
Different structural models combined with different residual error models and, if needed, with different estimation methods were applied to identify the most appropriate mixed-effects model. […]

[7] = Effect of different doses of repagermanium on efficacy of treatment (FIG. 1); type: in vivo
[8] = test system: protein to creatinine ratio; assay: Reduction in protein to creatinine ratio as a biomarker of kidney function; type: in vivo, human; details: 120 mg BID
[9] = study 101, healthy volunteers, oral
[10] = study 202, FSGS patients receiving irbesartan
[11] = study 203, DKD patients receiving irbesartan

T2 sequence (P41597 whole entry partner, one chain of several): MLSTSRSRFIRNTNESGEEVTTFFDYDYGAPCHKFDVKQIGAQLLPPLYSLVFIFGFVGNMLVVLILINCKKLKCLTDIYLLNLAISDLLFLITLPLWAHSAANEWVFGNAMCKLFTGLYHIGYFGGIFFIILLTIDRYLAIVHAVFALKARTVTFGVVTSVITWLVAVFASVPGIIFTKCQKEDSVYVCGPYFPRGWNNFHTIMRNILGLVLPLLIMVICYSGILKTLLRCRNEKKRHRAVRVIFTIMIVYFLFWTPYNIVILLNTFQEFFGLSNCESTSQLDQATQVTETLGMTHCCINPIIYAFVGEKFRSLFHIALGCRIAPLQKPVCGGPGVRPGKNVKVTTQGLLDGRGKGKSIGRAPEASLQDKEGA

Structure (SMILES): CCOc1nc2cccc(C(=O)O)c2n1Cc1ccc(-c2ccccc2-c2nc(=O)o[nH]2)cc1 [Azilsartan]
- Fold decrease in potency, AT1R only (AT1R [1]): 1.00 fold
- Potency (pIC50), AT1R-CCR2 ([2]; HEK293FT, 100 nM AngII + 100 nM MCP-1, 30 min ARB pre-incubation): 9.97
- Potency (pIC50/pKb), AT1R only (AT1R [3]): 9.9

Structure (SMILES): CCOc1nc2cccc(C(=O)O)c2n1Cc1ccc(-c2ccccc2-c2nnn[nH]2)cc1 [Candesartan]
- Fold decrease in potency, AT1R only (AT1R [1]): 1.00 fold
- Potency (pIC50/pKb), AT1R only (AT1R [3]): 10

Structure (SMILES): CCCCc1nc(Cl)c(C(=O)O)n1Cc1ccc(-c2ccccc2-c2nn[nH]n2)cc1 [EXP3174]
- potency in blocking angiotensin II-induced cellular responses [4]: significantly more potent than losartan

Structure (SMILES): CCCCc1ncc(/C=C(\Cc2cccs2)C(=O)O)n1Cc1ccc(C(=O)O)cc1 [Eprosartan]
- Fold decrease in potency, AT1R only (AT1R [1]): 1.00 fold
- Potency (pIC50/pKb), AT1R only (AT1R [3]): 8.8

Structure (SMILES): CCCCc1nc(C)c(CC(=S)N(C)C)c(=O)n1Cc1ccc(-c2ccccc2-c2nnn[nH]2)cc1 [Fimasartan]
- Fold decrease in potency, AT1R only (AT1R [1]): 1.00 fold
- Potency (pIC50/pKb), AT1R only (AT1R [3]): 8.82^$

Structure (SMILES): CCCCC1=NC2(CCCC2)C(=O)N1Cc1ccc(-c2ccccc2S(=O)(=O)Nc2noc(C)c2C)c(COCC)c1 [Sparsentan, 2-[4-[(2-butyl-4-oxo-1,3-diazaspiro[4.4]non-1-en-3-yl)methyl]-2-(ethoxymethyl)phenyl]-N-(4,5-dimethyl-1,2-oxazol-3-yl)benzenesulfonamide]
- Fold decrease in potency, AT1R only (AT1R [1]): 1.00 fold
- Kb ([2]; read-out: Affinity (pKb), AT1R-CCR2 (converted)): 1.74 nM
- Potency (pIC50/pKb), AT1R only (AT1R [3]): 9.1

Structure (SMILES): O=C(O)C[CH2][Ge](=[O])[O][Ge](=[O])[CH2]CC(=O)O [propagermanium, 3-[(2-carboxyethyl-oxogermyl)oxy-oxogermyl] propanoic acid]
- inhibition of in vitro chemotactic migration of monocytes by MCP-1 [5]: specifically inhibit in vitro chemotactic migration of monocytes by MCP-1

Structure (SMILES): O=C(O)C[CH2][Ge](=[O])[O][Ge](=[O])[CH2]CC(=O)O [repagermanium, 3-[(2-carboxyethyl-oxogermyl)oxy-oxogermyl]propanoic acid]
- blood concentration before the next dose ([6]; 80 mg twice per day): falling too low before the next dose to provide a therapeutic effect
- steady state AUC, range ([6]; 120 mg BID): 5000 to 25000 ng·h/mL
- AUC(0-t) at 24 h ([6]; human, plasma, study 101, healthy volunteers): 9800 ng·h/mL
- AUC(0-t) at 24 h ([6]; human, plasma, study 202, FSGS patients): 16700 ng·h/mL
- AUC(0-t) at 24 h ([6]; human, plasma, study 203, DKD patients): 11800 ng·h/mL
- CL/F ([6]; human, plasma, study 101, healthy volunteers, oral): 670 mL/min
- CL/F ([6]; human, plasma, study 202, FSGS patients receiving irbesartan, 120 mg bid oral): 300 mL/min
- CL/F ([6]; human, plasma, study 203, DKD patients receiving irbesartan, 120 mg bid oral): 345 mL/min
- AUC ([6]; human, plasma, 120 mg BID, read-out: steady state AUC): ~15000 ng·h/mL
- Clearance, range [6, 9]: 24.6 to 60.1 L/h
- F (rel. bioavailability), median [6, 9]: 1.6
- F (rel. bioavailability), range [6, 9]: 0.7-3.7
- AUC24h, steady state, range ([6]; study 101, healthy volunteers): 5500 to 24900 ng·h/mL
- F (rel. bioavailability), median [6, 10]: 1.1
- F (rel. bioavailability), range [6, 10]: 0.9-1.7
- Clearance, range ([6]; study 202, FSGS patients receiving irbesartan, 120 mg bid oral): 4.6 to 36.5 L/h
- AUC24h, steady state, range ([6]; study 202, FSGS patients): 7800 to 45200 ng·h/mL
- F (rel. bioavailability), median [6, 11]: 1.0
- F (rel. bioavailability), range [6, 11]: 0.4-1.9
- Clearance, range ([6]; study 203, DKD patients receiving irbesartan, 120 mg bid oral): 5.8 to 47.6 L/h
- AUC24h, steady state, range ([6]; study 203, DKD patients): 3900 to 47700 ng·h/mL
- therapeutic effect ([7]; 140 mg twice per day): reduced therapeutic effect
- efficacy vs repagermanium dose ([7]; different doses, FIG. 1): ‘bell-shaped’ inhibitory curve
- protein to creatinine ratio [8]: reduction in protein to creatinine ratio
